We go through one compound from patent US10196389B2, “One class of pyrazolone compounds and use thereof” (SHANGHAI INSTITUTE OF MATERIA MEDICA, CHINESE ACADEMY OF …, priority 2014, dated 2019).

Experiment [1] relates to AMPK and ACC phosphorylation on HepG2 cells. Nature of the experiment: AMPK and ACC phosphorylation on HepG2 cells (western blot). The format is cell-based. The following applies: different concentrations, FIG. 3. Here is the method:
(§1) 2. Experimental principle: Small molecule compounds allosterically activate AMPK and cause the phosphorylation of substrate acetyl-CoA carboxylase (ACC) at Ser-79-site.
(§2) 3. Detection reagents: AMPK, phospho-AMPK (T172), phospho-ACC (S79), and total ACC antibodies were purchased from Cell Signaling Technology.
(§3) 1) The cells were exchanged into serum-free medium and starved for two hours, and compounds were added to treat (in 0.4% DMSO) for 1 hour. The cells to be harvested were washed with PBS once. 1×SDS gel loading buffer (50 mM Tris (pH6.8), 100 mM DTT, 2% SDS, 10% glycerol, 0.1% bromophenol blue) was added to lysis cells (24 well plates, […] per well).
(§4) 2) The sample was heated at 100° C. for 10 minutes and then centrifuged at 12000 g for 10 minutes. The supernatant was subjected to SDS-PAGE electrophoresis under following condition: spacer gel: 70 volts, and separation gel: 90 volts.
(§5) 3) After electrophoresis, the proteins were transferred onto nitrocellulose membrane using Biorad wet electrical transduction system. After the desired band was cut, the strips were blocked in a blocking solution (TBST, containing 5% BSA) for 1 hour at room temperature. The strips were place in a solution containing the primary antibody and incubated overnight at 4° C.
(§6) 4) On next day, the target band was placed in TBST and washed at room temperature for 10 minutes (3 times). […]

Experiment [2] deals with T1, human AMPK (α2β1γ1) (Homo sapiens, UniProt P54619+P54646+Q9Y478).
T1 construct: made in house; host or cells: E. coli
T1 sequence (P54646 whole entry): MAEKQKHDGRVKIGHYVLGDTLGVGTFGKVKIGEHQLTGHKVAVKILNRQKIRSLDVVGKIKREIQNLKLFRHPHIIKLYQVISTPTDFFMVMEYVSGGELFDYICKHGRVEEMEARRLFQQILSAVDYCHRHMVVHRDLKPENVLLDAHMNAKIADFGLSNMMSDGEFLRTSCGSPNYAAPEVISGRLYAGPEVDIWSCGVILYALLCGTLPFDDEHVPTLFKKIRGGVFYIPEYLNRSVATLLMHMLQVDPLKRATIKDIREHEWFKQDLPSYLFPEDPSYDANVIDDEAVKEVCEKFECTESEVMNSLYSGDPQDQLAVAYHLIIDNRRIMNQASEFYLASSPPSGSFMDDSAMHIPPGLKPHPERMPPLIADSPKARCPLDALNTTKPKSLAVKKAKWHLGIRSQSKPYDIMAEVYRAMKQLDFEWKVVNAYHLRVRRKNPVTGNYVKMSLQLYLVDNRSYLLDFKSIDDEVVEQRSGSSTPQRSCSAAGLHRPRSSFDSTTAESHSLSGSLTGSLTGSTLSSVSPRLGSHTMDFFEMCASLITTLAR
T1 sequence (Q9Y478 whole entry): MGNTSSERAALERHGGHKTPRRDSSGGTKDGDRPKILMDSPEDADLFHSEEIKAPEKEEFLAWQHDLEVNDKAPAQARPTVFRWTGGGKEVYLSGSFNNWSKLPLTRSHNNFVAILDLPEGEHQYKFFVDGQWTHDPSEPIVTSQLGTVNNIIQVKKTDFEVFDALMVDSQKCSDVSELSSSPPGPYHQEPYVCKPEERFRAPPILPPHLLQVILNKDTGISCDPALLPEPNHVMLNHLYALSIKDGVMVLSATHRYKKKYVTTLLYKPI
T1 sequence (P54619 whole entry): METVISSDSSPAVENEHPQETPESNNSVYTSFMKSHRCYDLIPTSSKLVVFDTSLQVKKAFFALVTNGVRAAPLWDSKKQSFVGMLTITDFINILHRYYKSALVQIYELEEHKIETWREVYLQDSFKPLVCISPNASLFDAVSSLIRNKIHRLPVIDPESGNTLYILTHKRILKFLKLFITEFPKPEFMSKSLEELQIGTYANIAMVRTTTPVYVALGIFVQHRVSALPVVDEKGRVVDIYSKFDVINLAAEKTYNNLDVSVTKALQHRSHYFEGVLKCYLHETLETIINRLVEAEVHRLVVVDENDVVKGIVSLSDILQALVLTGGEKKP
In words: AMPK (α2β1γ1) activation at molecular level, HTRF KinEASE-STK S1 kinase assay. It counts as biochemical. How it is done: 1. Purpose of the experiment: To screen small molecule compounds that can activate AMPK (α2β1γ1).
2. Principle of the experiment: The peptide as substrate contains sites which can be AMPK phosphorylated. One terminal of the peptide is linked with biotin in the reaction system (containing 2 mM MgCl2, 400 μM DTT, 160 nM substrate peptide, 4 μM ATP and 1.6 nM AMPK). In the biotinylated terminal, biotin can link with streptavidin-XL665 (acceptor) so as to complete the labeling. After 45 minute of phosphorylation reaction, the phosphorylated substrate (i.e., product) can bind to an antibody (labeled Donor) which recognizes the phosphorylating site, and the biotin on the other terminal can linked to streptavidin-XL665 (acceptor) so that the resulting FRET signal can be detected with PE Evision. The final AMPK activity is expressed as a ratio of the 665 nm wavelength reading to the 615 nm wavelength reading (665 nm/615 nm).
3. Detection reagent: The human AMPK (α2β1γ1) protein was obtained by expression using an E. coli expression system and purification. HTRF KinEASE-STK S1 kit (purchased from Cisbio's); ATP (purchased from Sigma).
1) 200 nM AMPK (α2β1γ1) protein was incubated with 200 nM CaMKKβ at 30° C. for 4 hours in water bath to completely phosphorylate AMPK.
2) The enzyme reaction system (2 mM MgCl2, […], 160 nM substrate peptide, 4 µM ATP, and 1.6 nM AMPK) was prepared by using a white shallow plate purchased from PE. The reaction was reacted at 30° C. for 45 minutes. Phosphorylated recognizing peptides of the antibody and the XL665 Detection buffer were added and the mixture was incubated at room temperature for 3 hours before the signals were detected.

Experiment [3] has as its system AMPK and ACC phosphorylation on L6 myotubes. Nature of the experiment: AMPK and ACC phosphorylation on L6 myotubes (western blot). It counts as cell-based. Conditions: L6 muscle cells treated for 1 hour, FIGS. 2A and 2B. How it is done: as §1, §2, §3, §4, §5, §6
The test system of experiment [4] is AMPK and ACC phosphorylation on SD rat primary hepatocytes. Nature of the experiment: AMPK and ACC phosphorylation on SD rat primary hepatocytes (western blot). It counts as cell-based. The following applies: primary hepatocytes of SD rats, different concentrations, FIG. 4. Here is the method:
as §1, §2, §3, §4, §5, §6

[5] abbreviates: activation of human AMPK (α2β1γ1), 4 μM ATP, 45 min at 30° C.

SMILES strings stand for the structures.

For `COc1ccc(CNC(=O)c2ccc(CN3C=C4C(=O)N(c5ccc(F)c(C(F)(F)F)c5)N=C4CC3)cc2)cc1OC` [ZM-1], in experiment [1], the AMPK activation entry was “activate AMPK” and the “phosphorylation of ACC” value was “upregulate phosphorylation of ACC in a concentration or gradient dependent manner”. In addition, the “allosteric activation of AMPK in molecular level” value in experiment [2] (Table 1 and FIG. 1) is “significantly and allosterically activate AMPK”. Besides, in experiment [2] (setting [5]), the “Activation ratio (Fold)” value was 3.3 Fold and the EC50 was 2.1 µM. In addition, in experiment [3], the “AMPK activation at the cellular level” value was “dose-dependently activated” and the “downstream phosphorylation levels of ACC” value is “increased accordingly”. In experiment [4], the AMPK activation entry is reported as “activate AMPK” and the “phosphorylation of ACC” value is recorded as “upregulate phosphorylation of ACC in a concentration or gradient dependent manner”.
